From article PMC12295927, “Design, Synthesis, and Testing of 1,2,3-Triazolo-Quinobenzothiazine Hybrids for Cytotoxic and Immunomodulatory Activity” (International Journal of Molecular Sciences, 2025) come the findings set out here.

As a reminder, the pIC50 is the IC50 on a negative log10 scale, so that one unit is a factor of ten.

Type in all cases: cell-based, Human
One test deals with IL6 gene. The experiment in a line: RT-qPCR IL6 gene expression in BEAS-2B. The note with it: 24 h; for fold induction at 100 µM: Homo sapiens, reference gene RPL41, vs untreated control, read-out: Relative level of expression, IL6 gene. How it is done: (§1) Real-time polymerase chain reaction was performed for the reference gene RPL41 (ribosomal protein L41) and the tested genes: BCL2, AIFM2, MDM2, IL6 and IL8. […] The BEAS-2B line was selected for the experiment. The expression level of selected genes was measured after 24 h of incubation with the tested substances MJ1–MJ20 at a concentration of 100 μM (Table 3).
The RT-qPCR experiment was performed for the BEAS-2B cell line. In this experiment, the IL6 and IL8 genes were studied and RPL41 was used as a reference gene (Figure 17 and Figure 18).
(§2) Gene expression studies used quantitative RT-qPCR to assess the effect of the tested quinobenzothiazines (MJ1–MJ20) on the expression of apoptosis-related genes (BCL2, AIFM2, MDM2) and pro-inflammatory cytokines (IL6, IL8) (Table 4).
(§3) BEAS-2B and HCT116 cells were seeded in 6-well plates at 2 × 10^5 cells per well and cultured in RPMI-1640 (BEAS-2B) or DMEM (HCT116) medium supplemented with 10% FBS and 1% penicillin/streptomycin at 37 °C, 5% CO2 and 95% humidity. After 24 h of incubation, the tested compounds were added at a concentration of 100 µM. After 24 h, the medium was removed from the cells, washed with PBS solution, 0.5 mL of trypsin was added per well and after 5 min it was neutralized with medium. The obtained cell suspension was centrifuged for 3 min at 2000 rpm, the supernatant was removed, and the obtained pellet was suspended in 400 µL of phenozol. Samples were frozen at −20 °C and stored until further experiment and RNA isolation.
(§4) Total RNA was isolated from cells using the A&A Biotechnology Total RNA Mini kit according to the manufacturer’s protocol. RNA quality and quantity were assessed using a NanoDrop 2000 spectrophotometer at 260/280 nm. Reverse transcription was performed using the protocol (EURx NG dART RT Kit) to obtain cDNA. After incubation, samples were placed in a freezer (−20 °C) and stored until further analysis.
(§5) The experiment was performed according to the protocol (Brilliant III Ultra Fast SYBR® Green QPCR Master Mix, Quick Reference Guide for the Bio-Rad CFX96 Real-Time PCR Detection System). RT-qPCR reaction was performed using specific primers for target genes (BCL2, AIFM2, MDM2, IL6, IL8). Gene expression was normalized to the expression of the reference gene RPL41. Reaction profiles and results were performed using Bio-Rad CFX Maestro 1.1 software from Bio-Rad. Analysis and calculations of the results obtained during RT-qPCR were performed using Microsoft Excel.
(§6) The results were analyzed using the R = 2^−ΔΔCt method, which allows for determining the relative level of gene expression (R) compared to the control. Each experiment was performed in three technical and biological replicates. RT-qPCR allowed for precise assessment of changes in the expression of genes related to the processes of apoptosis and inflammatory response under the influence of quinobenzothiazines, which allowed for identifying their potential mechanisms of action at the molecular level.

A further test has as its system BEAS-2B. Put plainly: Alamar Blue cytotoxicity test, BEAS-2B. Particulars: Homo sapiens, 24 h, 24 h incubation, read-out: IC50 values for BEAS-2B line. How it is done:
The cytotoxicity of the tested chemical compounds MJ1–MJ20 was tested using the Alamar Blue test. The experiment was conducted on cell lines BEAS-2B (Figure 7), HCT116 (Figure 8), U2OS (Figure 9), MCF7 (Figure 10), SH-SY5Y (Figure 11), NHDF (Figure 12), and A549 (Figure 13). Cells were seeded in 96-well plates and incubated with the tested compounds for 24 h. The test result is the IC50 parameter, which is a measure of cytotoxic activity expressed by the concentration of the substance that causes the death of half of the analyzed cells compared to the control.
In cytotoxicity studies, the Alamar Blue test was used, which is based on the ability of living cells to reduce the non-fluorescent dye resazurin to fluorescent resorufin, which reflects the metabolic activity of cells. BEAS-2B, NHDF, HCT116, MCF7, A549, SH-SY5Y and U2OS cell lines were cultured under standard conditions, in DMEM medium supplemented with 10% FBS and 1% penicillin/streptomycin, at 37 °C, 5% CO2 and 95% humidity. Cells were seeded in 96-well plates at 1 × 10^4 cells per well and incubated for 24 h. Then, the tested compounds (MJ1–MJ20) were added at different concentrations (from 6.25 µM to 100 µM). The control contained cells untreated with the tested compounds. After 24 h of incubation, 10 µL of Alamar Blue solution was added to each well and incubated for another 2–4 h under the same conditions. The signal was measured spectrophotometrically at wavelengths of 570 nm (for resorufin) and 600 nm (for resazurin) or optionally fluorimetrically, using an excitation maximum of 570 nm and an emission maximum of 585 nm. The results were presented as percentage of cell survival relative to the control, calculating the ratio of absorbance or fluorescence of the sample to the control value. The Alamar Blue assay, due to its sensitivity and non-toxicity, allows for an accurate assessment of metabolic activity and cell survival in response to the tested quinobenzothiazines.
(Alamar Blue is a resazurin reagent that responds to reducing activity.)

A further test deals with BCL2 gene. Put plainly: RT-qPCR BCL2 gene expression in BEAS-2B. Particulars: 24 h; for fold induction at 100 µM: Homo sapiens, reference gene RPL41, vs untreated control, read-out: Relative level of expression, BCL2 gene. How it is done: as §1
The RT-qPCR experiment was performed for the BEAS-2B cell line. In this experiment, the BCL2 gene was studied, and RPL41 was used as the reference gene (Figure 14).
as §2, §3, §4, §5, §6

The next test deals with MDM2 gene. The experiment in a line: RT-qPCR MDM2 gene expression in BEAS-2B. The note with it: 24 h; for fold induction at 100 µM: Homo sapiens, reference gene RPL41, vs untreated control, read-out: Relative level of expression, MDM2 gene. On the procedure: as §1
The RT-qPCR experiment was performed for the BEAS-2B cell line. In this experiment, the MDM2 gene was studied and RPL41 was used as reference gene (Figure 15).
as §2, §3, §4, §5, §6
A general note: Quantitative PCR measures a nucleic acid by following its amplification.

pIC50: −log10 of the molar value.

Compound `CSc1ccc2c(c1)Sc1cc3ccccc3nc1N2Cc1cn(Cc2ccc(C#N)cc2)nn1` [MJ19, 4-((4-((9-Methylthioquino[3,2-b]benzo[1,4]thiazin-6-yl)methyl)-1H-1,2,3-triazol-1-yl)methyl)benzonitrile] registered an IL6 expression increase in the test with IL6 gene (100 μM, compared to control) of 57.2 fold. In addition, the fold induction at 100 µM came to 57.2 in the test with IL6 gene, 208 in the test with BCL2 gene and 10.3 in the test on MDM2 gene. Moreover, the negative logarithm of the IC50 (pIC50) in the test on BEAS-2B was 4.14. In the test on BCL2 gene (100 μM, compared to control), this compound gave a BCL2 expression increase of 208 fold. The MDM2 expression increase in the test with MDM2 gene (100 μM, compared to control) is reported as 10.3 fold.
As for `Fc1ccc2c(c1)Sc1cc3ccccc3nc1N2Cc1cn(Cc2ccc(Cl)cc2)nn1` [MJ8, 9-Fluoro-6-[(1-(4-chlorobenzyl)-1H-1,2,3-triazol-4-yl)methyl]-quino[3,2-b]benzo-[1,4]thiazine], the fold induction at 100 µM stood at 9.9 in the test on IL6 gene, 10.1 in the test on BCL2 gene and 8.1 with MDM2 gene. For the same compound, in the test on BEAS-2B, the pIC50 is 4.14.
In the same order, the values of `Clc1ccc2c(c1)Sc1cc3ccccc3nc1N2Cc1cn(CSc2ccccc2)nn1` [MJ15, 9-Chloro-6-((1-((phenylthio)methyl)-1H-1,2,3-triazol-4-yl)methyl)-quino[3,2-b]benzo[1,4]thiazine] are 13, 60.3, 6.4 and 4.06.
Turning to `Fc1ccc(Cn2cc(CN3c4ccccc4Sc4cc5ccccc5nc43)nn2)cc1` [MJ2, 6-((1-(4-Fluorobenzyl)-1H-1,2,3-triazol-4-yl)methyl)-quino[3,2-b]benzo[1,4]thiazine], the fold induction at 100 µM in the test with IL6 gene amounted to 1.7; in the test with BCL2 gene it was 6.5; in the test on MDM2 gene, 6.3. For the same compound, in the test on BEAS-2B, the pIC50 was 4.12.
